Results published in patent publication US20230102192A1, “THERAPIES FOR THE TREATMENT OF DISEASES AND DISORDERS ASSOCIATED WITH ABNORMAL EXPRESSION OF A NEURAL-ASSOCIATED GENE” (The Regents of the University of California, priority 2020, published 2023).
“Also recorded” adds a separate entry of the source.

Columns and labels:
Assay type in all cases: cell-based, human
MECP2-KO neurons [1] = assay: Calcium imaging of neurons; conditions: vs untreated KO
Procedure: (§1) Pharmacologic treatment. One-month old cortical organoids were treated for 1 mo with either Nefiracetam (10 μM) or PHA 543613 (10 μM) during media changes.
Calcium imaging. Calcium imaging was performed as described in Chailangkarn et al. Briefly, PSC-derived neuronal networks were lentivirally transduced with a Syn::RFP reporter construct. Cultures were washed with Krebs HEPES buffer and incubated with Fluo-4AM (Molecular Probes/Invitrogen, Carlsbad, Calif., USA). A Hamamatsu ORCA-ER digital camera (Hamamatsu Photonics, Japan) with 488 nm filter on an Olympus IX81 inverted fluorescence confocal microscope (Olympus Optical, Tokyo, Japan) acquired 5000 frames at 28 Hz in a 256×256 pixel region (100× magnification). Images were acquired with MetaMorph7.7 (MDS Analytical Technologies, Sunnyvale, Calif., USA) and analyzed with ImageJ and Matlab7.2 (Mathworks, Natick, Mass., USA). Syn::RFP+ neurons were selected following tetrodotoxin blockade of calcium transients. A 95th-percentile threshold of amplitude for calcium spikes was set for event detection; signal amplitude is presented as fluorescence change (ΔF/F) following background subtraction.

control neurons = assay: Effect of treatment on control neurons
Procedure: as §1
Pharmacologic screening identifies two compounds that specifically reverse MECP2-KO phenotypes. 14 commercially available pharmacologic compounds with mechanisms of action that counteract the synapse and neurotransmitter pathologies were selected and which are identified in FIG. 5B. […] MECP2-KO and control neurons were treated with each of the 14 compounds and employed a tiered series of assays to identify those that could selectively rescue MECP2-KO pathology without affecting controls. […] The capacity of these compounds to increase pre and post co-localized synaptic puncta in MECP2-KO neurons were evaluated, again eliminating the drugs that affected control neurons (see FIG. 5F-G, and FIG. 6C-D).

[2] = test system: MECP2-KO cortical organoids; assay: MEA electrophysiology of cortical organoids; conditions: 1 μM for one month, compared with control organoids
Procedure: Multi-electrode array (MEA) analysis. MEA analyses of neurons and cortical organoids were performed as described in Nageshappa et al. (Mol. Psychiatry 21:178-188 (2016)). Briefly, 3D neurosphere cultures of NPC derivation were plated on dual-chamber MEA; spontaneous spike activity was evaluated with the MED64 System (Panasonic). Glutamatergic (AP5, NBQX), GABAergic (Gabazine), and gap channel (Mefloquine) antagonism were used to check neuronal activity. After measurement, neurons were immunostained to check morphology and density. Recorded spikes were analyzed with the software Neuroexplorer (Nex Technologies, Madison, Ala., USA). For cortical organoids, 1-month organoids were plated on MEA plates and recordings were collected with a Maestro MEA system and AxIS Software Spontaneous Neural Configuration (Axion Biosystems, Atlanta, Ga., USA) using a customized script. The plate rested in the machine for three minutes followed by four minutes of recording. […] The synchrony index was calculated using a 20 ms cross-correlogram synchrony window was used to determine the synchrony index. […]
Nefiracetam and PHA 543613 rescue network activity in MECP2-KO cortical organoids. The therapeutic efficacy of Nefiracetam and PHA 543613 was evaluated with cortical organoids, a complex, three-dimensional human neurodevelopmental model that closely recapitulates aspects of human fetal neurodevelopment. […]

MECP2-KO neurons [3] = assay: Nuclei size in neurons; conditions: vs KO untreated
MECP2-KO neurons [4] = assay: Neuronal morphology (neurites, spine density); conditions: vs KO untreated

| Compound | frequency of calcium oscillations (MECP2-KO neurons [1]) | percentage of active neurons (MECP2-KO neurons [1]) | effect on controls (control neurons) | population spiking (MEA) [2] | nuclei size in neurons (MECP2-KO neurons [3]) | spine density / neuronal spine-like protrusions (MECP2-KO neurons [4]) |
| --- | --- | --- | --- | --- | --- | --- |
| Cc1cccc(C)c1NC(=O)CN1CCCC1=O [Nefiracetam, nefiracetam] | increases; also recorded: significantly increase | increase | leaving controls unaffected | increased population spiking to a level not significantly different from that of control organoids | did not rescue | rescued or partially rescued |
| O=C(N[C@H]1CN2CCC1CC2)c1cc2ccoc2cn1 [PHA 543613, N-[(3R)-1-azabicyclo[2.2.2]oct-3-yl]furo[2,3-c]pyridine-5-carboxamide] | increases; also recorded: significantly increase | increase | leaving controls unaffected | increased population spiking to a level not significantly different from that of control organoids | did not rescue | rescued or partially rescued |
